Test results as given in patent publication US20230167127A1, “COMPOUNDS AND THEIR USE IN THE TREATMENT OF BACTERIAL INFECTION” (Hoffmann-La Roche Inc., priority 2020, published 2023).

System: Escherichia coli ATCC 25922
Assay: 50% growth inhibitory concentration (IC50) determination, Iso-Sensitest broth dilution
Assay type: cell-based
Settings: Escherichia coli, ATCC25922, 16 h, strain Escherichia coli ATCC 25922; 10-point broth dilution, optical density at 600 nm over 16 h; read-out: Escherichia coli growth inhibition IC50
Method in brief: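 Growth was tracked as optical density at 600 nm every 20 minutes for 16 h at 35±2° C. Compounds from DMSO stocks were serially diluted twofold over 10 points (e.g. 50–0.097 μM final) in Iso-Sensitest broth. Inhibition computed in log-phase growth to give IC50.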

Row | IC50 | Structure (SMILES)
1 | 471 nM | O=C1COc2ccc(N3CC(CCCNC4Cc5ccc(F)cc5C4)OC3=O)nc2N1 (centres unmarked) [Example 12, 6-[5-[3-[(5-fluoro-2,3-dihydro-1H-inden-2-yl)amino]propyl]-2-oxo-1,3-oxazolidin-3-yl]-4H-pyrido[3,2-b][1,4]oxazin-3-one; formic acid]
2 | < 97.7 nM | O=C1COc2ncc(N3CC(CCNCC4Cc5nccc(F)c5C4)OC3=O)nc2N1 (centres unmarked) [Example 318, 6-[5-[2-[(4-fluoro-6,7-dihydro-5H-cyclopenta[b]pyridin-6-yl)methylamino]ethyl]-2-oxo-1,3-oxazolidin-3-yl]-4H-pyrazino [2,3-b][1,4]oxazin-3-one]
3 | < 97.7 nM | N[C@H]1c2cccc(Cl)c2C[C@@H]1CNCC[C@H]1CN(c2cnc3c(n2)NC(=O)CO3)C(=O)O1 [Example 401, 6-[(5S)-5-[2-[[(1R,2R)-1-amino-4-chloro-2,3-dihydro-1H-inden-2-yl]methylamino]ethyl]-2-oxo-1,3-oxazolidin-3-yl]-4H-pyrazino[2,3-b][1,4]oxazin-3-one]
4 | 357 nM | N#Cc1c(OCCN2CCOCC2)ccc2c1CC(CNCCC1CN(c3ccc4c(n3)NC(=O)CO4)C(=O)O1)C2 (centres unmarked) [Example 54, 5-(2-morpholin-4-ylethoxy)-2-[[2-[2-oxo-3-(3-oxo-4H-pyrido[3,2-b][1,4]oxazin-6-yl)-1,3-oxazolidin-5-yl]ethylamino]methyl]-2,3-dihydro-1H-indene-4-carbonitrile; formic acid]
5 | < 97.7 nM | Cc1ncc(C#N)c2c1CC(NCCCc1cn(-c3cnc4c(n3)NC(=O)CO4)c(=O)o1)C2 (single isomer, unassigned; enantiomer a) [Example 321, 1-Methyl-6-[3-[2-oxo-3-(3-oxo-4H-pyrazino[2,3-b][1,4]oxazin-6-yl)-1,3-oxazol-5-yl]propylamino]-6,7-dihydro-5H-cyclopenta[c]pyridine-4-carbonitrile, Enantiomer A]
6 | 212 nM | Cc1nc(OC[C@H](N)CO)c(C)c2c1CC(CNCCC1CN(c3ccc4c(n3)NC(=O)CO4)C(=O)O1)C2 (stereo partly drawn) [Example 234, 6-[5-[2-[[3-[(2R)-2-Amino-3-hydroxypropoxy]-1,4-dimethyl-6,7-dihydro-5H-cyclopenta[c]pyridin-6-yl]methylamino]ethyl]-2-oxo-1,3-oxazolidin-3-yl]-4H-pyrido[3,2-b][1,4]oxazin-3-one]
7 | 692 nM | N#Cc1c(OCC2CNC2)ccc2c1CC(CNCCC1CN(c3ccc4c(n3)NC(=O)CO4)C(=O)O1)C2 (centres unmarked) [Example 129, 5-(azetidin-3-ylmethoxy)-2-[[2-[2-oxo-3-(3-oxo-4H-pyrido[3,2-b][1,4]oxazin-6-yl)-1,3-oxazolidin-5-yl]ethylamino]methyl]-2,3-dihydro-1H-indene-4-carbonitrile; formic acid]
8 | 1690 nM | Cc1nc(OCC2CC(=O)N(C)C2)c(C)c2c1CC(CNCCC1CN(c3ccc4c(n3)NC(=O)CO4)C(=O)O1)C2 (centres unmarked) [Example 103, 6-[5-[2-[[1,4-dimethyl-3-[(1-methyl-5-oxopyrrolidin-3-yl)methoxy]-6,7-dihydro-5H-cyclopenta[c]pyridin-6-yl]methylamino]ethyl]-2-oxo-1,3-oxazolidin-3-yl]-4H-pyrido[3,2-b][1,4]oxazin-3-one]
9 | < 97.7 nM | N#Cc1cccc2c1CC(NCCCC1CN(c3cnc4c(n3)NC(=O)CO4)C(=O)O1)C2 (centres unmarked) [Example 80, 2-[3-[2-oxo-3-(3-oxo-4H-pyrazino[2,3-b][1,4]oxazin-6-yl)-1,3-oxazolidin-5-yl]propylamino]-2,3-dihydro-1H-indene-4-carbonitrile]
10 | < 97.7 nM | Cc1ncc(F)c2c1C[C@@H](CNCC[C@H]1CN(c3cnc4c(n3)NC(=O)CO4)C(=O)O1)C2 [Example 428, 6-[(5S)-5-[2-[[(6R)-4-fluoro-1-methyl-6,7-dihydro-5H-cyclopenta[c]pyridin-6-yl]methylamino]ethyl]-2-oxo-1,3-oxazolidin-3-yl]-4H-pyrazino[2,3-b][1,4]oxazin-3-one]
11 | 1110 nM | Cc1nc(OCCCS(C)(=O)=O)c(C)c2c1CC(CNCCC1CN(c3ccc4c(n3)NC(=O)CO4)C(=O)O1)C2 (centres unmarked) [Example 105, 6-[5-[2-[[1,4-dimethyl-3-(3-methylsulfonylpropoxy)-6,7-dihydro-5H-cyclopenta[c]pyridin-6-yl]methylamino]ethyl]-2-oxo-1,3-oxazolidin-3-yl]-4H-pyrido[3,2-b][1,4]oxazin-3-one]
12 | 95.1 nM | Cc1nc2c(c3c1CC(CNCCC1CN(c4ccc5c(n4)NC(=O)CO5)C(=O)O1)C3)CCN2C (centres unmarked) [Example 416, 6-[5-[2-[(5,8-dimethyl-5,7-diazatricyclo[7.3.0.0^2,6]dodeca-1,6,8-trien-11-yl)methylamino]ethyl]-2-oxo-1,3-oxazolidin-3-yl]-4H-pyrido[3,2-b][1,4]oxazin-3-one]
13 | 139 nM | N#Cc1cc(OCc2cnc[nH]2)cc2c1CC(CNCCC1CN(c3cnc4c(n3)NC(=O)CO4)C(=O)O1)C2 (centres unmarked) [Example 406, 6-(1H-imidazol-5-ylmethoxy)-2-[[2-[2-oxo-3-(3-oxo-4H-pyrazino[2,3-b][1,4]oxazin-6-yl)-1,3-oxazolidin-5-yl]ethylamino]methyl]-2,3-dihydro-1H-indene-4-carbonitrile; formic acid]
14 | 131 nM | CC(N)COc1cc2c(c(Cl)n1)CC(CNCCC1CN(c3ccc4c(n3)NC(=O)CO4)C(=O)O1)C2 (centres unmarked) [Example 144, 6-[5-[2-[[3-(2-aminopropoxy)-1-chloro-6,7-dihydro-5H-cyclopenta[c]pyridin-6-yl]methylamino]ethyl]-2-oxo-1,3-oxazolidin-3-yl]-4H-pyrido[3,2-b][1,4]oxazin-3-one; formic acid]
15 | < 97.7 nM | N#Cc1cccc2c1C(N)C(CNCCC1CN(c3ccc4c(n3)NC(=O)CO4)C(=O)O1)C2 (racemic) [Example 156, rac-2,3-trans-3-amino-2-[[2-[2-oxo-3-(3-oxo-4H-pyrido[3,2-b][1,4]oxazin-6-yl)-1,3-oxazolidin-5-yl]ethylamino]methyl]-2,3-dihydro-1H-indene-4-carbonitrile]
16 | < 97.7 nM | NC1c2cccc(Cl)c2CC1CNCCC1CN(c2ccc3c(n2)NC(=O)CS3)C(=O)O1 (racemic) [Example 246, 5-[2-[(rac-1,2-trans-1-amino-4-chloro-2,3-dihydro-1H-inden-2-yl)methylamino]ethyl]-3-(3-oxo-4H-pyrido[3,2-b][1,4]thiazin-6-yl)-1,3-oxazolidin-2-one]
17 | 105 nM | NC(=O)COc1cc(F)c2c(c1)CC(CNCC[C@@H]1CN(c3cnc4c(n3)NC(=O)CO4)C(=O)O1)C2 (single isomer, unassigned; isomer a) [Example 381]
18 | 2400 nM | O=C1COc2ccc(N3CC(CCNC4Cc5ccc(Cl)cc5C4)OC3=O)nc2N1 (centres unmarked) [Example 11, 6-[5-[2-[(5-chloro-2,3-dihydro-1H-inden-2-yl)amino]ethyl]-2-oxo-1,3-oxazolidin-3-yl]-4H-pyrido[3,2-b][1,4]oxazin-3-one]
19 | < 97.7 nM | Cc1ncc(F)c2c1CC(C(C)NCC[C@H]1CN(c3cnc4c(n3)NC(=O)CO4)C(=O)O1)C2 (stereo partly drawn) [Example 330, 6-[(5S)-5-[2-[1-(4-fluoro-1-methyl-6,7-dihydro-5H-cyclopenta[c]pyridin-6-yl)ethylamino]ethyl]-2-oxo-1,3-oxazolidin-3-yl]-4H-pyrazino[2,3-b][1,4]oxazin-3-one; formic acid]
20 | < 97.7 nM | N#Cc1cc(OCc2cocn2)cc2c1CC(CNCCC1CN(c3cnc4c(n3)NC(=O)CO4)C(=O)O1)C2 (centres unmarked) [Example 386, 6-(1,3-oxazol-4-ylmethoxy)-2-[[2-[2-oxo-3-(3-oxo-4H-pyrazino[2,3-b][1,4]oxazin-6-yl)-1,3-oxazolidin-5-yl]ethylamino]methyl]-2,3-dihydro-1H-indene-4-carbonitrile]
21 | < 97.7 nM | N#CCOc1cc(F)c2c(c1)CC(CNCCC1CN(c3ccc4c(n3)NC(=O)CO4)C(=O)O1)C2 (centres unmarked) [Example 73, 2-[[7-fluoro-2-[[2-[2-oxo-3-(3-oxo-4H-pyrido[3,2-b][1,4]oxazin-6-yl)-1,3-oxazolidin-5-yl]ethylamino]methyl]-2,3-dihydro-1H-inden-5-yl]oxy]acetonitrile; formic acid]
22 | 208 nM | N#Cc1cccc2c1CC(CNC[C@H](O)[C@@H]1CN(c3ccc4c(c3)NC(=O)CO4)C(=O)O1)C2 (stereo partly drawn) [Example 62, 2-[[[(2S)-2-hydroxy-2-[(5S)-2-oxo-3-(3-oxo-4H-1,4-benzoxazin-6-yl)-1,3-oxazolidin-5-yl]ethyl]amino]methyl]-2,3-dihydro-1H-indene-4-carbonitrile; formic acid]
23 | 317 nM | O=C1COc2ncc(N3CC(CCNCC4Cc5cc(OCCn6ncnn6)cc(F)c5C4)OC3=O)nc2N1 (centres unmarked) [Example 348, 6-[5-[2-[[4-fluoro-6-[2-(tetrazol-2-yl)ethoxy]-2,3-dihydro-1H-inden-2-yl]methylamino]ethyl]-2-oxo-1,3-oxazolidin-3-yl]-4H-pyrazino[2,3-b][1,4]oxazin-3-one; formic acid]
24 | < 97.7 nM | Cc1noc(COc2cc(C#N)c3c(c2)CC(CNCCC2CN(c4cnc5c(n4)NC(=O)CO5)C(=O)O2)C3)n1 (centres unmarked) [Example 387, 6-[(3-methyl-1,2,4-oxadiazol-5-yl)methoxy]-2-[[2-[2-oxo-3-(3-oxo-4H-pyrazino[2,3-b][1,4]oxazin-6-yl)-1,3-oxazolidin-5-yl]ethylamino]methyl]-2,3-dihydro-1H-indene-4-carbonitrile]
25 | 584 nM | O=C1COc2ccc(N3CC(CCNCC4Cc5ccccc5C4)OC3=O)nc2N1 (centres unmarked) [Example 87, 6-[5-[2-(2,3-dihydro-1H-inden-2-ylmethylamino)ethyl]-2-oxo-1,3-oxazolidin-3-yl]-4H-pyrido[3,2-b][1,4]oxazin-3-one]
26 | 373 nM | O=C1COc2ccc(N3CC(CCCNC4Cc5ccnc(Cl)c5C4)OC3=O)nc2N1 (centres unmarked) [Example 92, 6-[5-[3-[(1-chloro-6,7-dihydro-5H-cyclopenta[c]pyridin-6-yl)amino]propyl]-2-oxo-1,3-oxazolidin-3-yl]-4H-pyrido[3,2-b][1,4]oxazin-3-one]
